target: GST-hRIPK1 (8-327) (Homo sapiens (Human), UniProt Q13546); experiment: Fluorescent Polarization Binding (FP Binding) assay
Sequence (Q13546 8-327): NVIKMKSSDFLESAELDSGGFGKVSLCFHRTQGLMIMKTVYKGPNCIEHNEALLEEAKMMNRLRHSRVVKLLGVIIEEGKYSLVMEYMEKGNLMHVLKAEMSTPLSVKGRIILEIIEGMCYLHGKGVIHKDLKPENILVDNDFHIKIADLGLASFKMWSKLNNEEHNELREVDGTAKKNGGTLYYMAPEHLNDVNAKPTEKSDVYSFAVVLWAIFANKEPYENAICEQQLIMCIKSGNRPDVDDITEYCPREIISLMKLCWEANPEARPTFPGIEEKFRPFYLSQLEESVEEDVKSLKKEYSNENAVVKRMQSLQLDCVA

| SMILES | IC50 [nM] |
| --- | --- |
| CN1C(=O)[C@H](NC(=O)c2nnc(C3(c4ccccc4)CC3)o2)CCc2nccnc21 [Example 180B, (R)—N-(5-methyl-6-oxo-6,7,8,9-tetrahydro-5H-pyrazino[2,3-b]azepin-7-yl)-5-(1-phenylcyclopropyl)-1,3,4-oxadiazole-2-carboxamide] | > 3000 |
| CN1C(=O)[C@H](NC(=O)c2nnc(Cc3ccccc3)o2)[C@@H]2C[C@@H]2c2nccnc21 [Example 177B, 5-benzyl-N-((7R,7aR,8aS)-5-methyl-6-oxo-5,6,7,7a,8,8a-hexahydrocyclopropa[d]pyrazino[2,3-b]azepin-7-yl)-1,3,4-oxadiazole-2-carboxamide] | > 3000 |
| N#Cc1cccc(Cn2cc(F)c(C(=O)N[C@H]3C(=O)Nc4c(F)cc(F)cc4[C@H]4C[C@H]43)n2)c1 [Example 170B, 1-(3-cyanobenzyl)-N-((1aR,2R,8bS)-5,7-difluoro-3-oxo-1,1a,2,3,4,8b-hexahydrobenzo[b]cyclopropa[d]azepin-2-yl)-4-fluoro-1H-pyrazole-3-carboxamide] | > 3000 |
| CN1C(=O)[C@@H](NC(=O)C2CC(Cc3ccccc3)C2)COc2ccccc21 (stereo partly drawn) [Example 43, 3-benzyl-N—((S)-5-methyl-4-oxo-2,3,4,5-tetrahydrobenzo[b][1,4]oxazepin-3-yl)cyclobutane-1-carboxamide] | 1000 to 10000 |
| CN1C(=O)[C@@H](NC(=O)[C@@H]2C[C@H]2Cc2ccccc2)COc2ccccc21 (single isomer, unassigned) [Example 50A] | 0.1 to 1000 |
| CN1C(=O)[C@H](NC(=O)c2nnc(Cc3ccccc3)[nH]2)CC2(CC2)c2cccnc21 [Example 125A, (R)-5-benzyl-N-(9′-methyl-8′-oxo-6′,7′,8′,9′-tetrahydrospiro[cyclopropane-1,5′-pyrido[2,3-b]azepin]-7′-yl)-4H-1,2,4-triazole-3-carboxamide] | > 3000 |
| CN1C(=O)C(NC(=O)c2nnc(Cc3ccccc3)[nH]2)[C@@H]2C[C@@H]2c2ccccc21 (stereo in doubt) [Example 46B, 5-benzyl-N-((2S)-4-methyl-3-oxo-1,1a,2,3,4,8b-hexahydrobenzo[b]cyclopropa[d]azepin-2-yl)-4H-1,2,4-triazole-3-carboxamide] | > 3000 |
| CN1C(=O)[C@H](NC(=O)c2nnc(Cc3ccccc3)o2)C2(CC2)Oc2cccnc21 [Example 160B, (R)-5-benzyl-N-(5′-methyl-4′-oxo-4′,5′-dihydro-3′H-spiro[cyclopropane-1,2′-pyrido[3,2-b][1,4]oxazepin]-3′-yl)-1,3,4-oxadiazole-2-carboxamide] | > 3000 |
| O=C(N[C@@H]1C(=O)Nc2c(F)cc(F)cc2[C@H]2C[C@@H]12)c1nnc(Cc2ccccc2)[nH]1 [Example 176, 5-benzyl-N-((1aR,2S,8bS)-5,7-difluoro-3-oxo-1,1a,2,3,4,8b-hexahydrobenzo[b]cyclopropa[d]azepin-2-yl)-4H-1,2,4-triazole-3-carboxamide] | 0.1 to 1000 |
| C[C@H]1Oc2cccnc2N(C)C(=O)[C@H]1NC(=O)c1ccn(Cc2ccccc2)n1 [Example 155, 1-Benzyl-N-((2R,3S)-2,5-dimethyl-4-oxo-2,3,4,5-tetrahydropyrido[3,2-b][1,4]oxazepin-3-yl)-1H-pyrazole-3-carboxamide] | 0.1 to 1000 |
| CN1C(=O)[C@@H](NC(=O)c2cnc(Cc3ccccc3)[nH]2)COc2cccnc21 [Example 108, (S)-2-benzyl-N-(5-methyl-4-oxo-2,3,4,5-tetrahydropyrido[3,2-b][1,4]oxazepin-3-yl)-1H-imidazole-5-carboxamide] | 0.1 to 1000 |
| O=C(N[C@H]1COc2cccnc2NC1=O)c1nnc(C2CCc3ccccc32)[nH]1 (single isomer, unassigned) [Example 102A] | 1000 to 10000 |
| N#Cc1cccc(Cc2nnc(C(=O)N[C@H]3C(=O)Nc4c(F)cc(F)cc4[C@H]4C[C@H]43)[nH]2)c1 [Example 181A, 5-(3-cyanobenzyl)-N-((1aR,2R,8bS)-5,7-difluoro-3-oxo-1,1a,2,3,4,8b-hexahydrobenzo[b]cyclopropa[d]azepin-2-yl)-4H-1,2,4-triazole-3-carboxamide] | > 3000 |
| O=C(N[C@H]1C(=O)Nc2ncccc2[C@H]2C[C@H]21)c1nnc(Cc2ccccc2)[nH]1 [Example 110A, 5-benzyl-N-((1aR,2R,8bS)-3-oxo-1,1a,2,3,4,8b-hexahydrocyclopropa[d]pyrido[2,3-b]azepin-2-yl)-4H-1,2,4-triazole-3-carboxamide] | > 3000 |
| CN1C(=O)[C@H](NC(=O)c2nnc(Cc3ccccc3)s2)[C@@H]2C[C@@H]2c2cccnc21 [Example 120B, 5-benzyl-N-((1aR,2R,8bS)-4-methyl-3-oxo-1,1a,2,3,4,8b-hexahydrocyclopropa-[d]pyrido[2,3-b]azepin-2-yl)-1,3,4-thiadiazole-2-carboxamide] | > 3000 |
| Cn1ncc2c1CC[C@@H](NC(=O)c1nnc(Cc3ccccc3)[nH]1)C(=O)N2 [Example 118A, (R)-5-benzyl-N-(1-methyl-5-oxo-1,4,5,6,7,8-hexahydropyrazolo[4,3-b]azepin-6-yl)-4H-1,2,4-triazole-3-carboxamide] | > 3000 |

Now from value to compound:

| IC50 [nM] | SMILES |
| --- | --- |
| > 3000 | Cc1nc2c(s1)CC[C@@H](NC(=O)c1nnc(Cc3ccccc3)[nH]1)C(=O)N2C [Example 38B, (R)-5-benzyl-N-(2,4-dimethyl-5-oxo-5,6,7,8-tetrahydro-4H-thiazolo[4,5-b]azepin-6-yl)-4H-1,2,4-triazole-3-carboxamide] |
| > 3000 | CN1C(=O)[C@H](NC(=O)c2nn(Cc3ccccc3)cc2F)CCc2nn(C)cc21 [Example 109B, (R)-1-benzyl-N-(2,4-dimethyl-5-oxo-2,4,5,6,7,8-hexahydropyrazolo[4,3-b]azepin-6-yl)-4-fluoro-1H-pyrazole-3-carboxamide] |
| > 3000 | Cc1cnn2c1N(C)C(=O)[C@H](NC(=O)c1nnc(Cc3ccccc3)[nH]1)CC2 [Example 131B, (R)-5-Benzyl-N-(3,4-dimethyl-5-oxo-5,6,7,8-tetrahydro-4H-pyrazolo[1,5-a][1,3]diazepin-6-yl)-4H-1,2,4-triazole-3-carboxamide] |
| 0.1 to 1000 | Cc1cnn2c1N(C)C(=O)[C@@H](NC(=O)c1nnc(Cc3ccccc3)[nH]1)CC2 [Example 131A, (S)-5-Benzyl-N-(3,4-dimethyl-5-oxo-5,6,7,8-tetrahydro-4H-pyrazolo[1,5-a][1,3]diazepin-6-yl)-4H-1,2,4-triazole-3-carboxamide] |
| 0.1 to 1000 | Cn1cc2c(n1)CC[C@H](NC(=O)c1nnc(Cc3ccccc3)[nH]1)C(=O)N2 [Example 104B, (S)-5-benzyl-N-(2-methyl-5-oxo-2,4,5,6,7,8-hexahydropyrazolo[4,3-b]azepin-6-yl)-4H-1,2,4-triazole-3-carboxamide] |
| > 3000 | Cn1cc2c(n1)CC[C@@H](NC(=O)c1nnc(Cc3ccccc3)[nH]1)C(=O)N2 [Example 104A, (R)-5-benzyl-N-(2-methyl-5-oxo-2,4,5,6,7,8-hexahydropyrazolo[4,3-b]azepin-6-yl)-4H-1,2,4-triazole-3-carboxamide] |
| 1000 to 10000 | CN1C(=O)[C@H](NC(=O)c2nnc(Cc3ccccc3)o2)CCc2cccnc21 [Example 148B, (R)-5-benzyl-N-(9-methyl-8-oxo-6,7,8,9-tetrahydro-5H-pyrido[2,3-b]azepin-7-yl)-1,3,4-oxadiazole-2-carboxamide] |
